Measured values: patent US7408024B2, “Somatostatin antagonists” (The Administrators of the Tulane Educational Fund, priority 2001, dated 2008)
Where a SMILES comes first, the peptide text is derived from it. Bridges are numbered along the chain shown (N, C = ends). [ ]: non-standard residue; d: D form. Phe(4-Cl) = N[C@@H](Cc1ccc(Cl)cc1)C(=O)O; dNMeW = CN[C@H](Cc1c[nH]c2ccccc12)C(=O)O; 2Nal = N[C@@H](Cc1ccc2ccccc2c1)C(=O)O; 3Pal = N[C@@H](Cc1cccnc1)C(=O)O; NMeK = CN[C@@H](CCCCN)C(=O)O

Experiments:
[1] = biological target: T1, hsst1 (Homo sapiens, UniProt P30872); assay: Radioligand binding, cloned human sst1 receptor (CHO-K1 membranes); details: [125I]Tyr11-SRIF, CHO-K1 cell membranes; single values = one binding experiment; read-out: K1 ± SEM hsst1
T1 construct: each containing the entire coding region of the full-length receptors; expressed in transfected cells
T1 sequence (P30872 whole entry): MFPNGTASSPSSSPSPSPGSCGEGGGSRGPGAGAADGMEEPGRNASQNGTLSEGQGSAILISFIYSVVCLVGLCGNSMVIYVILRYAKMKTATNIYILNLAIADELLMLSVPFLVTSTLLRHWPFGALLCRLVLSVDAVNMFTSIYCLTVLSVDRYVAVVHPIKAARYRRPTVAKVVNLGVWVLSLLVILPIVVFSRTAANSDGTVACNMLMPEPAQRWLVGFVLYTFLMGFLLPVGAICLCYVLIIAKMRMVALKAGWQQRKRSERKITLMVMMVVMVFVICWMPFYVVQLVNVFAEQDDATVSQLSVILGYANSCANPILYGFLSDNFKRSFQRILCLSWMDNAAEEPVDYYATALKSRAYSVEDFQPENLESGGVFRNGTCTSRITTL
Source text: (§1) The genomic clones containing the human somatostatin receptors (hsstr1-5) (Yamada, Y., et al. al., Proc. Natl. Acad. Sci. USA. 1992, 89, 251-255; Yasuda, K., et al., J. Biol. Chem. 1992, 267, 20422-20428; Yamada, Y., et al., Mol. Pharmacol. 1992, 42, 2136-2142; Rohrer, L., et al., Proc. Natl. Acad. Sci. USA. 1993, 90, 4196-4200.), were kindly provided by Dr. Graeme I. Bell (University of Chicago). The hsstr1, hsstr2, hsstr3, hsstr4 and hsstr5 cDNAs were isolated as a 1.5-kb PstI-XmnI fragment, 1.7-kb BamHI-HindIII fragment, 2.0-kb NcoI-HindIII fragment, 1.4-kb NheI-NdeI fragment, and a 1.2-kb HindIII-XbaI fragment, respectively, each containing the entire coding region of the full-length receptors. These fragments were independently subdloned into the corresponding restriction endonuclease sites in the mammalian expression vector pCMV5, downstream from the human cytomegalovirus (CMV) promoter, to produce the expression plasmids pCMV5/hsstr1, pCMV5/hsstr2, pCMV5/hsstr3, pCMV5/hsstr4 and pCMV5/hsstr5. For transfection into CHO-K1 cells, a plasmid, pRSV-neo (American Type Culture Collection, Rockville, Md.), carrying the neomycin mammalian cell selectable marker was added.
(§2) Transfections were performed by the calcium phosphate method. CHO-K1 cells are maintained in α-minimum essential medium (α-MEM; Gibco) supplemented with 10% fetal calf serum and transfected with each of the expression plasmids using calcium phosphate precipitation. Clones that had inherited the expression plasmid were selected in α-MEM supplemented with 500 μg mL^−1 of geneticin (G418; Gibco). Independent CHO-K1 clones were picked by glass-ring cloning and expanded in culture in the selective media. Membranes were prepared from the isolated clones and hsstr expression was initially assessed for binding with [^125I]Tyr^11-SRIF and [^125]IMK-678 (for sstr2).
(§3) Cell membranes of the 5 receptor types were obtained from homogenates (Polytron setting 6, 15 sec) of the corresponding CHO-K1 cells, in ice-cold Tris-HCl (50 mM) and centrifuged (39000 g, 10 min×2), with an intermediate resuspension in fresh buffer. The final pellets are resuspended in Tris-HCl (10 mM) for assay. Aliquots of the membranes are incubated (30 min at 37° C.) with 0.05 nM [^125I]Tyr^11-SRIF (types 1,3,4,5) or [^125I]MK-678 (type 2) in 50 mM HEPES (pH 7.4) containing BSA (10 mg mL^−1); MgCl2 (5 mM), Trasylol (200 kIU mL^−1), bacitracin (0.02 mg mL^−1), and phenylmethanesulfonyl fluoride (0.02 mg mL^−1). The final assay volume is 0.3 mL and incubations are terminated by rapid filtration through GF/C filters pre-soaked in 0.3% poly(ethylenimine) using a Brandel rapid filtration module. Each tube and filter is then washed with aliquots of cold buffer (3×5 mL).
(§4) Specific binding is. defined as the total radioligand bound minus that bound in the presence of 1.0 μM SRIF.

[2] = biological target: T2, hsst2 (Homo sapiens, UniProt P30874); assay: Radioligand binding, cloned human sst2 receptor (CHO-K1 membranes); details: [125I]MK-678, CHO-K1 cell membranes; single values = one binding experiment; read-out: K1 ± SEM hsst2
T2 construct: each containing the entire coding region of the full-length receptors; expressed in transfected cells
T2 sequence (P30874 whole entry): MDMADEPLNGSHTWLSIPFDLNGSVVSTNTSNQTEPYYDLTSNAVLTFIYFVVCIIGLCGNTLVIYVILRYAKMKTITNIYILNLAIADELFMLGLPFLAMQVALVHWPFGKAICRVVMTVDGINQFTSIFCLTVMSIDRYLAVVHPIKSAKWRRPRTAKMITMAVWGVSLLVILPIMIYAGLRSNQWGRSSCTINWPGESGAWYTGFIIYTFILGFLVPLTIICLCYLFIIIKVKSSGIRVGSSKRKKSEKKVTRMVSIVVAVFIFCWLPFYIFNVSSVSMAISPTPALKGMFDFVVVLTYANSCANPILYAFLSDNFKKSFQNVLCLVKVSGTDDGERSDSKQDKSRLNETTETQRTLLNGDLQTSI
Source text: as §1, §2, §3, §4

[3] = biological target: T3, hsst3 (Homo sapiens, UniProt P32745); assay: Radioligand binding, cloned human sst3 receptor (CHO-K1 membranes); details: [125I]Tyr11-SRIF, CHO-K1 cell membranes; single values = one binding experiment; read-out: K1 ± SEM hsst3
T3 construct: each containing the entire coding region of the full-length receptors; expressed in transfected cells
T3 sequence (P32745 whole entry): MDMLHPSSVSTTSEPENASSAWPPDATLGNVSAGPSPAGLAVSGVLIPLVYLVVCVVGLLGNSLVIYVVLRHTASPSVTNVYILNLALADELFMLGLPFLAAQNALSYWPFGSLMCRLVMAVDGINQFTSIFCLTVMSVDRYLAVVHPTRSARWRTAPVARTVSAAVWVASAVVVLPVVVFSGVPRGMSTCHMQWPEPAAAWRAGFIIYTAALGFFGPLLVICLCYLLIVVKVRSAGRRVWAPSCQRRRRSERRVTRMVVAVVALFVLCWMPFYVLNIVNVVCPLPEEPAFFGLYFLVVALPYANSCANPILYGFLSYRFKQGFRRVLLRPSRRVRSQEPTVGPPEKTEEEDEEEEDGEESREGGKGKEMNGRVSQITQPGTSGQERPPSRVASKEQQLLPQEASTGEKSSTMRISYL
Source text: as §1, §2, §3, §4

[4] = biological target: T4, hsst4 (Homo sapiens, UniProt P31391); assay: Radioligand binding, cloned human sst4 receptor (CHO-K1 membranes); details: [125I]Tyr11-SRIF, CHO-K1 cell membranes; single values = one binding experiment; read-out: K1 ± SEM hsst4
T4 construct: each containing the entire coding region of the full-length receptors; expressed in transfected cells
T4 sequence (P31391 whole entry): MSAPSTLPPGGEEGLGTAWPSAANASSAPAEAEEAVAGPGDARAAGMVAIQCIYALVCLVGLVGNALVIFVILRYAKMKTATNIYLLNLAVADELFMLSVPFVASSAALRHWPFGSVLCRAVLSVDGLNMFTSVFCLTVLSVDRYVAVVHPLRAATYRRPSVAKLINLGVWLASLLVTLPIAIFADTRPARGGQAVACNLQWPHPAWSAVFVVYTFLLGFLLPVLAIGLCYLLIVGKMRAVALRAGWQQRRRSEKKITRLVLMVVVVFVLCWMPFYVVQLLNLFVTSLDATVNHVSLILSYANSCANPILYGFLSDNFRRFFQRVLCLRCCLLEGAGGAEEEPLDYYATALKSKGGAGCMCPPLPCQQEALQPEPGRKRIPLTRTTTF
Source text: as §1, §2, §3, §4

[5] = biological target: T5, hsst5 (Homo sapiens, UniProt P35346); assay: Radioligand binding, cloned human sst5 receptor (CHO-K1 membranes); details: [125I]Tyr11-SRIF, CHO-K1 cell membranes; single values = one binding experiment; read-out: K1 ± SEM hsst5
T5 construct: each containing the entire coding region of the full-length receptors; expressed in transfected cells
T5 sequence (P35346 whole entry): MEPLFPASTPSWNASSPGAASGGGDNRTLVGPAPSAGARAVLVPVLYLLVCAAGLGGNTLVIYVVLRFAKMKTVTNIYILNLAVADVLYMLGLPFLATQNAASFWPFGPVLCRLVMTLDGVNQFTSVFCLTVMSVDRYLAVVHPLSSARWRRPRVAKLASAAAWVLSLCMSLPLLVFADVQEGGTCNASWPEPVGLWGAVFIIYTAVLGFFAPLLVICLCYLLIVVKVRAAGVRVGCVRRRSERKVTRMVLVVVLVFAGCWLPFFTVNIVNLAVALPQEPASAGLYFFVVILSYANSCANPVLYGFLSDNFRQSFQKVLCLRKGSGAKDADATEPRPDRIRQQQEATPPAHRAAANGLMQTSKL
Source text: as §1, §2, §3, §4

[6] = test system: SRIF inhibition of GH release in rat anterior pituitary cells; type: cell-based
Procedure: Anterior pituitaries from adult male rats were collected and dispersed by a previously described trypsin/DNase method. (Murphy, W. A.; Taylor, J.; Moreau, J.-P. and Coy, D. […] Sigma) and nystatin (10,000 U mL^−1; Gibco). The cells were randomly plated at a density of approximately 200,000 cells/well (Costar cluster 24; Rochester Scientific Co., Rochester, N.Y.). The plated cells were maintained in the above Dulbecco's medium in a humidified atmosphere of 95% air/5% CO2 at 37° C. for 4-6 days. In preparation for a hormone challenge, the cells were washed with medium 199 (Gibco, 3×1 mL). […] Sigma Chemical Co.). […] After 3 h incubation in an air/carbon dioxide atmosphere (95/5%, 3 h at 37° C.), the medium was removed and stored at −20° C. until assayed for hormone content. Growth hormone in media was measured by a standard double antibody RIA using components generously supplied by Dr. A. F. Parlow at the National Hormone and Pituitary Program (NHHP) Torrance, Calif.

SMILES	Ki [1]	Ki [2]	Ki [3]	Ki [4]	Ki [5]	IC50 [6]
CN[C@@H](Cc1ccc(Cl)cc1)C(=O)N[C@@H]1CSSC[C@@H](C(=O)N[C@@H](Cc2ccc3ccccc3c2)C(N)=O)NC(=O)[C@H]([C@@H](C)O)NC(=O)[C@H](CCCCN)NC(=O)[C@@H](Cc2c[nH]c3ccccc23)NC(=O)[C@H](Cc2cccnc2)NC1=O [Peptide 1, NmeCpa-cyclo(DCys-3-Pal-DTrp-Lys-Thr-Cys)-2-Nal-NH2]	1000 nM	36 ± 7.6 nM	330 ± 126 nM	1000 nM	40.1 ± 18.8 nM	7.8 ± 2.7 nM
C[C@@H](O)[C@@H]1NC(=O)[C@H](CCCCN)N(C)C(=O)[C@@H](Cc2c[nH]c3ccccc23)N(C)C(=O)[C@H](Cc2cccnc2)NC(=O)[C@H](NC(=O)[C@@H](N)Cc2ccc(Cl)cc2)CSSC[C@@H](C(=O)N[C@@H](Cc2ccc3ccccc3c2)C(N)=O)NC1=O [Peptide 11, Cpa-cyclo(DCys-3-Pal-NMeDTrp-NMeLys-Thr-Cys)-2-Nal-NH2] (H-[Phe(4-Cl)][dC][3Pal][dNMeW][NMeK]TC[2Nal]-NH2; disulfide 2-7)	1000 nM	9.33 ± 0.62 nM	140 ± 10.4 nM	1000 nM	112 ± 19 nM	2.5 ± 0.2 nM
